Assay results from patent publication US20250186405A1, “Compound For Use In Treating Narcolepsy” (Alkermes, Inc., priority 2023, published 2025).
“And” between values parts separate entries of the source, which are not always exact repeats. Equal values may be shown once. Read-outs that look alike come from different tables or passages of the source.

Key:
[1] = Part 5 NT2: plasma pharmacokinetics, single doses; assay type: in vivo, human; conditions: for Cmax / AUC(0-t) / Tmax: human, oral; for Cmax / AUC(0-t): geometric mean; for AUC(0-t): read-out: AUC0-24; for Tmax: plasma
Description: Treatments were administered under fasted state. Dose levels were as follows:
Subjects were randomized to 1 of 4 sequences.
Blood samples (up to 5 mL per sample) were collected for PK analysis of Compound A and its metabolite(s). The actual time of sample collection was recorded. The PK samples of the subjects randomized to placebo treatment were not analyzed. Any remaining plasma PK samples were used to explore the presence of any additional metabolites and/or biomarkers.
Plasma and urine concentrations of Compound A and its metabolite(s) were measured using a validated high-performance liquid chromatography with tandem mass spectrometry.
The PK population was used for summaries of plasma Compound A and its metabolite(s) concentrations and for analyses, summaries, and listing of PK parameters. Dose proportionality for Cmax, AUC0-t, and AUC0-∞ was evaluated using a linear model of logarithmically transformed values to assess the slope parameter, and the 95% CI for the slope was estimated. Where a 95% CI of the slope includes 1, it was considered as evidence of dose proportionality for that PK parameter.

[2] = test system: subjects with idiopathic hypersomnia (IH); experiment: Part 6 IH: Maintenance of Wakefulness Test (MWT) sleep latency; assay type: in vivo, human; conditions: for LS mean difference vs placebo in change from baseline, average MWT sleep latency: 2-8 hours post-dose; for Change from Day −1 in Average Sleep Latency on the MWT, LSM / Change from Day −1 in Average Sleep Latency on the MWT, LSM difference vs placebo: N = 8; for Average Sleep Latency on the MWT, Change from Day −1, Mean (SD) / Average Sleep Latency on the MWT, Change from Day −1, Median / Average Sleep Latency on the MWT, Dosing Day, Mean (SD) / Average Sleep Latency on the MWT, Dosing Day, Median: n = 8
Description: The Treatment Visit (Visit 2) began on Day −2, when each subject's eligibility criteria were reviewed, and eligible subjects were admitted to the clinic. Screening assessments and eligibility criteria review continued after admission until Day 1, prior to randomization and dosing. On Day −1, approximately 25 hours prior to study drug administration (on Day 1), baseline assessments for Maintenance of Wakefulness Test (MWT) began and were collected in a series of trials over approximately 10 hours.
At specified time points (Parts 5 and 6), MWT assessments were performed and took up to 40 minutes to complete. During the MWT trials, subjects were seated in a bed or reclining chair in a darkened room with their back and head supported such that their neck is not uncomfortably flexed or extended. Subjects were instructed to sit still and remain awake for as long as possible during each 40-minute trial. If the subject fell asleep during a trial, they were awakened, and the trial was terminated. […] Upon completion of the trial, the subject returned to a normal environment/ambiance and remained awake (and were awakened if they fall asleep) until the next trial.
Once Parts 5 and 6 were completed, the EEG data recorded during the MWT, as well as the technician notes, were transferred to the EEG vendor for further analysis. Technician notes were also maintained for transfer to Sponsor at the end of the study. A precise assessment of sleep latency was conducted by an experienced sleep scorer from the EEG vendor, and spectral analysis was performed on the EEG data recorded during MWT to assess absolute and relative powers in standard frequency bands (i.e., qEEG). All raw data and analysis results were transferred to the Sponsor.
For the changes from baseline in average sleep latency across the first 4 sessions of the MWT, descriptive statistics were provided by dose level. Mixed model with repeated measure (MMRM) for the 4-period crossover design were conducted with the change from baseline as a dependent variable, and the dose level and the period as fixed factors. The differences in the least square means between each Compound A dose level and the placebo (each Compound A dose level—the placebo), and the 2-sided CIs were provided.
Evaluation of Compound A effects on average sleep latency across 4 timepoints of MWT (2-, 4-, 6-, and 8-hours post-dose) has been conducted at each of the crossover periods (Days 1, 3, 5 and 7), testing placebo, and active dose levels of 5, 12, and 25 mg in the patients with IH compared to placebo. At pre-dose baseline on Day −1, MWT assessment was taken at similar times (2-, 4-, 6-, and 8-hours) as planned on dosing days assuming a dosing time of approximately 9 AM. Mean (SD) of baseline MWT average across the 4 time points on Day −1 was 22.61 (9.294), with high variability observed for IH subjects.

[3] = Oral PK of micronized Compound A, powder-in-capsule vs tablet, two particle sizes; assay type: in vivo, male Beagle dogs; conditions: male, Beagle, dog, plasma
Description: A non-GLP study was conducted in male Beagle dogs to compare the Compound A plasma exposure of powder-in-capsule (PIC) versus tablet formulation after the administration of single oral doses of micronized Compound A. Two different particle sizes were tested with the following objectives: • 1. To compare the oral plasma exposure of micronized Compound A (12 micron Dv90 particle size) after the administration of 20 mg of Compound A powder-in-capsule vs 20 mg of Compound A in four tablets of 5 mg each. • 2. To compare the oral plasma exposure of 12 micron and 32 micron Dv90 particle size of 20 mg micronized Compound A administered in four tablets of 5 mg each. • 3. To evaluate the dose-linearity of Compound A by comparing the oral plasma exposure of Compound A following the oral administration of 5 mg (one tablet) versus 20 mg (four tablets) of Compound A.
The pharmacokinetic analysis of concentrations and concentration-time data are summarized in tabular form, below, using descriptive statistics. Concentration data were summarized according to nominal sampling times. Plasma concentrations below the lower limit of assay quantification (BLOQ) were not included in the computation of mean concentration values. Pharmacokinetic parameters for individual animals were estimated using the non-compartmental analysis (NCA) using Dotmatics Studies tool.
The absolute extravascular bioavailability (F %) were calculated using the following formula: F %= [(AUC0-∞(extravascular)×Dose(intravenous(IV)))/(AUC0-∞(intravenous(IV))×Dose(extravascular))]×100 Where the “extravascular” represents any of subcutaneous (SC), intraperitoneal (IP) or oral (PO) route of administration.
The F % is calculated for each subject in case the same animals were administered with both intravenous and extravascular dose, then the average is reported with the standard error; otherwise, F % is calculated using the mean values without reporting a standard deviation in case the subjects of intravenous and extravascular profiles are different. Pharmacokinetic parameters were summarized by dosing group, route of administration, formulation, etc. using descriptive statistics.

**Q.** With CS(=O)(=O)N[C@H]1CCCN2C(=O)COc3ccccc3C3CCC(CC3)OCC12 (stereo partly drawn) [Compound A, N-[(4S,4aR,7α,10α)-1,2,3,4,4a,5,7,8,9,10,16,17-dodecahydro-17-oxo-7,10-ethanopyrido[1,2-d][1,7,4]benzodioxaazacyclotridecin-4-yl]methanesulfonamide] as the molecule, how does the “fold change in AUC and Cmax for 5-fold change in dose” value ([1]; NT2 patients, 5 to 25 mg) read?
**A.** approximately 3 fold

**Q.** What about the Cmax ([1]; 5 mg, NT2, plasma, n = 8) of the same molecule?
**A.** 13.4 ng/mL

**Q.** What about the AUC(0-t) ([1]; 5 mg, NT2, plasma, n = 8) of the same molecule?
**A.** 78.1 ng·h/mL

**Q.** What about the Cmax ([1]; 12 mg, NT2, plasma, n = 8) of the same molecule?
**A.** 24 ng/mL

**Q.** What about the AUC(0-t) ([1]; 12 mg, NT2, plasma, n = 8) of the same molecule?
**A.** 185 ng·h/mL

**Q.** What about the Cmax ([1]; 25 mg, NT2, plasma, N = 9) of the same molecule?
**A.** 38 ng/mL

**Q.** What about the AUC(0-t) ([1]; 25 mg, NT2, plasma, N = 9) of the same molecule?
**A.** 231 ng·h/mL

**Q.** What about the Tmax ([1]; 5 mg, NT2, plasma, median, n = 8, read-out: Tmax) of the same molecule?
**A.** 1.75 h

**Q.** And the Tmax ([1]; 12 mg, NT2, plasma, median, n = 8, read-out: Tmax)?
**A.** 2 h

**Q.** What about the Tmax ([1]; 25 mg, NT2, plasma, median, N = 9, read-out: Tmax) of the same molecule?
**A.** 3 h

**Q.** And the Tmax ([1]; 25 mg, NT2 patients, 5, 12, 25 mg, read-out: median tmax, range across doses)?
**A.** 1.75 to 3 h

**Q.** And the “LS mean difference vs placebo in change from baseline, average MWT sleep latency” value (shortened to “LS mean difference vs placebo in change”) ([2]; 5 mg)?
**A.** 8.07 min and 8 min

**Q.** And the “Change from Day −1 in Average Sleep Latency on the MWT, LSM” value ([2]; 5 mg)?
**A.** 6.35 min

**Q.** What about the “Change from Day −1 in Average Sleep Latency on the MWT, LSM difference vs placebo” value (shortened to “Change … LSM difference vs placebo”) ([2]; 5 mg) of the same molecule?
**A.** 8.07 min

**Q.** And the “Average Sleep Latency on the MWT, Change from Day −1, Mean (SD)” value ([2]; 5 mg)?
**A.** 6.35 (10.348) minutes

**Q.** And the “Average Sleep Latency on the MWT, Change from Day −1, Median” value ([2]; 5 mg)?
**A.** 4.75 min

**Q.** What about the “Average Sleep Latency on the MWT, Dosing Day, Mean (SD)” value ([2]; 5 mg) of the same molecule?
**A.** 28.96 (9.196) minutes

**Q.** And the “Average Sleep Latency on the MWT, Dosing Day, Median” value ([2]; 5 mg)?
**A.** 29.13 min

**Q.** And the “observed mean MWT score over 8-hour period post-dose” value ([2]; 12 mg)?
**A.** ≥ 30 min

**Q.** And the “LS mean difference vs placebo in change” value ([2]; 12 mg)?
**A.** 11.05 min and 11 min

**Q.** And the “Change from Day −1 in Average Sleep Latency on the MWT, LSM” value ([2]; 12 mg)?
**A.** 9.33 min

**Q.** What about the “Change … LSM difference vs placebo” value ([2]; 12 mg) of the same molecule?
**A.** 11.05 min

**Q.** What about the “Average Sleep Latency on the MWT, Change from Day −1, Mean (SD)” value ([2]; 12 mg) of the same molecule?
**A.** 9.33 (11.468) minutes

**Q.** What about the “Average Sleep Latency on the MWT, Change from Day −1, Median” value ([2]; 12 mg) of the same molecule?
**A.** 7.00 min

**Q.** And the “Average Sleep Latency on the MWT, Dosing Day, Mean (SD)” value ([2]; 12 mg)?
**A.** 31.94 (7.814) minutes

**Q.** What about the “Average Sleep Latency on the MWT, Dosing Day, Median” value ([2]; 12 mg) of the same molecule?
**A.** 32.69 min

**Q.** And the “observed mean MWT score over 8-hour period post-dose” value ([2]; 25 mg)?
**A.** ≥ 30 min

**Q.** What about the “LS mean difference vs placebo in change” value ([2]; 25 mg) of the same molecule?
**A.** 17.67 min and 18 min

**Q.** What about the “Change from Day −1 in Average Sleep Latency on the MWT, LSM” value ([2]; 25 mg) of the same molecule?
**A.** 15.95 min

**Q.** And the “Change … LSM difference vs placebo” value ([2]; 25 mg)?
**A.** 17.67 min

**Q.** What about the “Average Sleep Latency on the MWT, Change from Day −1, Mean (SD)” value ([2]; 25 mg) of the same molecule?
**A.** 15.95 (10.946) minutes

**Q.** What about the “Average Sleep Latency on the MWT, Change from Day −1, Median” value ([2]; 25 mg) of the same molecule?
**A.** 15.31 min

**Q.** And the “Average Sleep Latency on the MWT, Dosing Day, Mean (SD)” value ([2]; 25 mg)?
**A.** 38.56 (2.821) minutes

**Q.** What about the “Average Sleep Latency on the MWT, Dosing Day, Median” value ([2]; 25 mg) of the same molecule?
**A.** 40.00 min

**Q.** And the bioavailability ([3]; 5 mg, one 5 mg tablet, 12 micron Dv90, read-out: Oral bioavailability (F %))?
**A.** 55%

**Q.** What about the bioavailability ([3]; 20 mg, 20 mg PIC and 4 tablets of 5 mg, 12 and 32 micron Dv90, read-out: F % (absolute oral bioavailability), range) of the same molecule?
**A.** 26 to 29%

**Q.** What about the bioavailability ([3]; 20 mg, four 5 mg tablets (20 mg), 12 micron Dv90, read-out: Oral bioavailability (F %)) of the same molecule?
**A.** 29%

**Q.** And the Tmax ([3]; 20 mg PIC and 4 tablets of 5 mg, 12 and 32 micron Dv90)?
**A.** ~3 h

**Q.** And the AUC(0-inf) ([3]; 20 mg PIC and 4 tablets of 5 mg, 12 and 32 micron Dv90, read-out: AUC0-∞, range)?
**A.** 1570 to 1730 ng·h/mL

**Q.** And the Cmax ([3]; 20 mg PIC and 4 tablets of 5 mg, 12 and 32 micron Dv90, read-out: Cmax, range)?
**A.** 230 to 270 ng/mL

**Q.** What about the half-life ([3]; 20 mg PIC and 4 tablets of 5 mg, 12 and 32 micron Dv90, read-out: terminal t1/2 (converted)) of the same molecule?
**A.** ~3 h
